In patent US8796250B2, “Diaryl ureas for diseases mediated by PDGFR” (Bayer Healthcare LLC, priority 2003, dated 2014):

Key:
[1] = molecular target: T1, mouse PDGFR (PDGFR beta) (Mus musculus, UniProt P05622); assay: Murine PDGFR FRET Biochemical Assay; details: 1 nM mouse PDGFR, 20 μM ATP, TR-FRET; read-out: IC50 in biochemical assay (inhibition of PDGFR)
T1 construct: made in house
Excerpt: Reaction is initiated upon addition of enzyme.

[2] = tested on: restenosis following angioplasty; details: G. Bilder et al. Circulation 1999; cited from earlier work
[3] = tested on: neointimal formation; details: rat model; M. Karck et al. 2002; cited from earlier work
[4] = molecular target: T2, PDGFR-beta phosphorylation (Tyr-857) in Aortic SMC stimulated with PDGF BB (Homo sapiens, UniProt P09619); assay: pPDGFR-Beta Sandwich ELISA in AoSMC Cells; assay type: cell-based; details: 1 hr compound, 10 ng/mL PDGF BB for 7 minutes, read-out: IC50 in bioassay of PDGFR inhibition in cells
T2 construct: endogenous in cells; host or cells: Aortic SMC (AoSMC), passages P3-P6
T2 sequence (P09619 33-1106): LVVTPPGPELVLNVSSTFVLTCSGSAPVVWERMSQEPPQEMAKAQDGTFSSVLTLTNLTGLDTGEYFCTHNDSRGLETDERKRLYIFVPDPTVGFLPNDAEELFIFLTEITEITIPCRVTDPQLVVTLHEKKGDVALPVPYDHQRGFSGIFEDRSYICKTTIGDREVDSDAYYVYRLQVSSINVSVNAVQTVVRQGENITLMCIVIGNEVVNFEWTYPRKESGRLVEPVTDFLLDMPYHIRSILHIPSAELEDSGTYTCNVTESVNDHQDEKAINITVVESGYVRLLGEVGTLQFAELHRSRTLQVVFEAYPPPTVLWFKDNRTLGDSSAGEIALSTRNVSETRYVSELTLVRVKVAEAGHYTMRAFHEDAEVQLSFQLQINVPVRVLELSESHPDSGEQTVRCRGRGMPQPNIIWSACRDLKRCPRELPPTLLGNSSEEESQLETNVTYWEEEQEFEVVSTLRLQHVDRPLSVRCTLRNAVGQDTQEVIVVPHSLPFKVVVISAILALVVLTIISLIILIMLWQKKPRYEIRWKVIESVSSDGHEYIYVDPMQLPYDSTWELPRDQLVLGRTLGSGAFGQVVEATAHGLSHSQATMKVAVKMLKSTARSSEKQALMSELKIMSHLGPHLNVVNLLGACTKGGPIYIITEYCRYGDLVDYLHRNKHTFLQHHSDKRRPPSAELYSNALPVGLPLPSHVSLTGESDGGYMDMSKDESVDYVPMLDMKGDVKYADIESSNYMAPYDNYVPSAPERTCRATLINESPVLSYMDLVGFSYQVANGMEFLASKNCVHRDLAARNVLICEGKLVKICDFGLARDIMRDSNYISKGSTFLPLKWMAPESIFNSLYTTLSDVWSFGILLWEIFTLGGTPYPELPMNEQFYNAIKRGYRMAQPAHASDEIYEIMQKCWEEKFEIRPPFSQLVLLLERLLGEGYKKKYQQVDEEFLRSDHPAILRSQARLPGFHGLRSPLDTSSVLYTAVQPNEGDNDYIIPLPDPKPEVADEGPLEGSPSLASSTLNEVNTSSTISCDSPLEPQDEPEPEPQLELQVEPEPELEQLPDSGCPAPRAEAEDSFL
Description: 100K P3-P6 Aortic SMC were plated in each well of 12-well cluster in 1000 uL volume/well of SGM-2 using standard cell culture techniques. Next day, cells were rinsed with 1000 uL D-PBS (Gibco) once, then serum starved in 500 uL SBM (smooth muscle cell basal media) with 0.1% BSA (Sigma, Cat A9576) overnight. Compounds were diluted at a dose range from (10 uM to 1 nM in 10-fold dilution steps in DMSO. Final DMSO concentration 0.1%). Remove old media by inversion into the sink quickly then add 100 ul of each dilution to corresponding well of cells for 1 hr at 37° C. Cells were then stimulated with 10 ng/mL PDGF BB ligand for 7 minutes at 37° C. The media is decanted and 150 uL of isotonic lysis buffer with protease inhibitor tablet (Complete; EDTA-free) and 0.2 mM Na vanadate is added. Cells are lysed for 15 min at 4° C. on shaker in cold room. […] Next day, beads are rinsed in 50-volumes of PBS three times and boiled in 1×LDS sample buffer (Invitrogen) for 5 minutes. Samples were run on 3-8% gradient Tris-Acetate gels (Invitrogen) and transferred onto Nitrocellulose. […] After three washes in TBS-T, membranes were incubated in Goat anti-rabbit HRP IgG (Amersham, 1:25000 dilution) for 1 hr. Three more washes followed before addition of ECL substrate. Membranes were exposed to Hyperfilm-ECL.

T1 sequence (P05622 32-1098): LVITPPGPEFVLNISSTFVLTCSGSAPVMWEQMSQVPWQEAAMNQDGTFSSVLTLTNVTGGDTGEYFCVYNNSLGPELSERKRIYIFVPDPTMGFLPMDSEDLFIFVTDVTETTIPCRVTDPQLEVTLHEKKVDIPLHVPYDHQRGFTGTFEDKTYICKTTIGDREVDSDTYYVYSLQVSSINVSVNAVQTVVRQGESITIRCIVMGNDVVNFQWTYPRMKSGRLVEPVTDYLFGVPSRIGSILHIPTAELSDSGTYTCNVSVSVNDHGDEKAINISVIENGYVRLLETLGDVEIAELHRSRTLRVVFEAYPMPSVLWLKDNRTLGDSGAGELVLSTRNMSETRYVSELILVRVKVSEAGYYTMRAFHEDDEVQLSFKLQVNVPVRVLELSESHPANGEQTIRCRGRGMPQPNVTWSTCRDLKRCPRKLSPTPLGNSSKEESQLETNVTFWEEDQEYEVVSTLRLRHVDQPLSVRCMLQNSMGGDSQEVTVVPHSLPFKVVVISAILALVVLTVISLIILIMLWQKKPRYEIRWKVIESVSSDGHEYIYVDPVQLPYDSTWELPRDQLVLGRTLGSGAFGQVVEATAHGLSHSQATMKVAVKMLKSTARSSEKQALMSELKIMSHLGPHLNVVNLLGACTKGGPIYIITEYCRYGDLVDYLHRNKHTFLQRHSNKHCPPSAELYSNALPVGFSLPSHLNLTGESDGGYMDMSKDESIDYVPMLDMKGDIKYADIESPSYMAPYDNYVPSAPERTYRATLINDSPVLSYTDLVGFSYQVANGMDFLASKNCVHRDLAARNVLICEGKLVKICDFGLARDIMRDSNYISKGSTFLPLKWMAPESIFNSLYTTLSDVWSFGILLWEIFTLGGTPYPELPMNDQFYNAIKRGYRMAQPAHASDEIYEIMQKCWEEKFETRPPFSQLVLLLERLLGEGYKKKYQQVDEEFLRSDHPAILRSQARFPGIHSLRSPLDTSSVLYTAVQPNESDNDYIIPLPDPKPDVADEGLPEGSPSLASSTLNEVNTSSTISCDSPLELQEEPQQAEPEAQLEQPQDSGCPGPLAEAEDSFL

Row | SMILES | IC50 [1] | also measured
1 | CNC(=O)c1cc(Oc2ccc(NC(=O)Nc3ccc(Cl)c(C(F)(F)F)c3)cc2)ccn1 [N-(4-chloro-3-(trifluoromethyl)phenyl)-N′-(4-(2-(N-methylcarbamoyl)-4-pyridyloxy)phenyl) urea] | < 10 µM | –
2 | N#Cc1cc(Oc2ccc(NC(=O)Nc3ccc4c(c3)C(F)(F)OC(F)(F)O4)cc2)ccn1 [N-(6-(2,2,4,4-tetrafluoro-4H-benzo[1,3]dioxinyl))-N′-(4-(2-cyano-4-pyridyloxy)phenyl) urea] | < 10 µM | –
3 | N#Cc1cc(Oc2ccc(NC(=O)Nc3ccc4c(c3)C(F)(F)OC(F)(F)O4)c(F)c2)ccn1 [N-(6-(2,2,4,4-tetrafluoro-4H-benzo[1,3]dioxinyl))-N′-(4-(2-cyano-4-pyridyloxy)-2-fluorophenyl) urea] | < 10 µM | –
4 | NC(=O)c1cc(Oc2ccc(NC(=O)Nc3ccc(Cl)c(C(F)(F)F)c3)cc2)ccn1 [N-(4-chloro-3-(trifluoromethyl)phenyl)-N′-(4-(2-carbamoyl-4-pyridyloxy)phenyl) urea] | < 10 µM | –
5 | COc1cc2ncc(-c3ccsc3)nc2cc1OC.Cl [RPR101511A] | – | effect on restenosis following angioplasty [2]: prevented angiographically defined restenosis following angioplasty
6 | CNC(=O)c1cc(Oc2ccc(NC(=O)Nc3ccc(Br)c(C(F)(F)F)c3)c(Cl)c2)ccn1 [N-(4-bromo-3-(trifluoromethyl)phenyl)-N′-(4-(2-(N-methylcarbamoyl)-4-pyridyloxy)-2-chlorophenyl) urea] | < 10 µM | –
7 | CNC(=O)c1cc(Oc2ccc(NC(=O)Nc3ccc(Br)c(C(F)(F)F)c3)cc2)ccn1 [N-(4-bromo-3-(trifluoromethyl)phenyl)-N′-(4-(2-(N-methylcarbamoyl)-4-pyridyloxy)phenyl) urea] | < 10 µM | –
8 | CNC(=O)c1cc(Oc2ccc(NC(=O)Nc3ccc(F)c(C(F)(F)F)c3)c(F)c2)ccn1 [N-(4-fluoro-3-(trifluoromethyl)phenyl)-N′-(4-(2-(N-methylcarbamoyl)-4-pyridyloxy)-2-fluorophenyl) urea] | < 10 µM | –
9 | Cc1cc2ncc(-c3ccccc3)nc2cc1C [AG-1295] | – | effect on neointimal formation in aortic allograft vasculopathy [3]: reduce neointimal formation
10 | NC(=O)c1cc(Oc2ccc(NC(=O)Nc3ccc(Cl)c(C(F)(F)F)c3)cc2)cc[n+]1[O-] [N-(4-chloro-3-(trifluoromethyl)phenyl)-N′-(4-(1-hydroxy-2-carbamoyl-4-pyridyloxy)phenyl) urea] | < 10 µM | –
11 | CNC(=O)c1cc(Oc2ccc(NC(=O)Nc3ccc(Cl)c(C(F)(F)F)c3)c(Cl)c2)ccn1 [N-(4-chloro-3-(trifluoromethyl)phenyl)-N′-(4-(2-(N-methylcarbamoyl)-4-pyridyloxy)-2-chlorophenyl) urea] | < 10 µM | IC50 [4]: < 10 µM
12 | CNC(=O)c1cc(Oc2ccc(NC(=O)Nc3ccc(Br)c(C(F)(F)F)c3)c(F)c2)ccn1 [N-(4-bromo-3-(trifluoromethyl)phenyl)-N′-(4-(2-(N-methylcarbamoyl)-4-pyridyloxy)-2-fluorophenyl) urea] | < 10 µM | –
13 | CNC(=O)c1cc(Oc2ccc(NC(=O)Nc3ccc(Cl)c(C(F)(F)F)c3)cc2)cc[n+]1[O-] [N-(4-chloro-3-(trifluoromethyl)phenyl)-N′-(4-(1-hydroxy-2-(N-methylcarbamoyl)-4-pyridyloxy)phenyl) urea] | < 10 µM | –
